ChEMBL document CHEMBL1201862, “PubChem BioAssay data set” (2004)
Activity calls are given as the source filed them.

What was measured:
Assay type in all cases: functional
[1] = molecular target: Protein kinase C delta type (Homo sapiens, UniProt Q05655)
[2] = molecular target: Ribosomal protein S6 kinase beta-1 (Homo sapiens, UniProt P23443);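 note: measured as one member of a kinome-wide profiling panel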
[3] = molecular target: Serine/threonine-protein kinase Chk2 (Homo sapiens, UniProt O96017);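 note: CHEK2 entry within a kinome-wide screening panel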
[4] = molecular target: Casein kinase II subunit alpha (Homo sapiens, UniProt P68400)
Chain of Casein kinase II subunit alpha (P68400 whole entry): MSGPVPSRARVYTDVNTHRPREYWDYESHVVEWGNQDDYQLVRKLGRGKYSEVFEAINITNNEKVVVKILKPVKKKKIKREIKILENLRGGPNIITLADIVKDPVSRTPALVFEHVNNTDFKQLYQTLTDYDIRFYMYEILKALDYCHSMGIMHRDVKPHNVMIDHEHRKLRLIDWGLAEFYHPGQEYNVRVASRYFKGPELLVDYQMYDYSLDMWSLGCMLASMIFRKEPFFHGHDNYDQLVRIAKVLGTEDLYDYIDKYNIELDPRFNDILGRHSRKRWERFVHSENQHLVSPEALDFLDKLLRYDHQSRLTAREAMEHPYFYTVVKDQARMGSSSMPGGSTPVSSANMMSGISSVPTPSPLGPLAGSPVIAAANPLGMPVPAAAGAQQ

[5] = molecular target: Serine/threonine-protein kinase PAK 1 (Homo sapiens, UniProt Q13153)
[6] = molecular target: Tyrosine-protein kinase Lyn (Homo sapiens, UniProt P07948);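 note: lyn as one member of a kinase panel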
Insulin receptor = Insulin receptor (Homo sapiens, UniProt P06213);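 note: insulin receptor kinase tested as one member of a kinome-wide kinase panel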
[7] = molecular target: Casein kinase I isoform delta (Homo sapiens, UniProt P48730);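 note: measured as one member (CSNK1D) of a kinome panel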
[8] = molecular target: Interleukin-1 receptor-associated kinase 4 (Homo sapiens, UniProt Q9NWZ3)
[9] = molecular target: RAC-alpha serine/threonine-protein kinase (Homo sapiens, UniProt P31749);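 note: AKT1 affinity measured as one member of a kinome-wide kinase profiling panel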
[10] = molecular target: Vascular endothelial growth factor receptor 3 (Homo sapiens, UniProt P35916);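 note: value from a kinome-wide profiling panel, with FLT4 as the panel member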
[11] = molecular target: 3-phosphoinositide-dependent protein kinase 1 (Homo sapiens, UniProt O15530);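 note: value comes from the Navigating the Kinome panel, PDPK1 member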
[12] = molecular target: Serine/threonine-protein kinase Nek2 (Homo sapiens, UniProt P51955)
Chain of Serine/threonine-protein kinase Nek2 (P51955 whole entry): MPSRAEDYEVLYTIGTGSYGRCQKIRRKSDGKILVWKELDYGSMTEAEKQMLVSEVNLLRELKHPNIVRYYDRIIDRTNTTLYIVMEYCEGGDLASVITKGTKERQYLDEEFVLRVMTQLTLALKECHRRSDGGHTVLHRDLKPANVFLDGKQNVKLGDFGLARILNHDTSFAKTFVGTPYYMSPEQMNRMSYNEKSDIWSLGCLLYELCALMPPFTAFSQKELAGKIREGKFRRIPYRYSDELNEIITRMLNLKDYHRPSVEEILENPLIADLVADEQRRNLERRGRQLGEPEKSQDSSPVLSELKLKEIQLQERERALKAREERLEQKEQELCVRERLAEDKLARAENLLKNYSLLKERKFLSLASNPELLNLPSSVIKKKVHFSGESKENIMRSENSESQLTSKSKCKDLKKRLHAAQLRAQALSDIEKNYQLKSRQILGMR

[13] = molecular target: Serine/threonine-protein kinase PLK1 (Homo sapiens, UniProt P53350);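 note: PLK1 measured as one member of a kinome-wide profiling panel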
[14] = molecular target: Serine/threonine-protein kinase MRCK alpha (Homo sapiens, UniProt Q5VT25)
[15] = molecular target: Dual specificity protein kinase CLK2 (Homo sapiens, UniProt P49760)
[16] = molecular target: Dual specificity mitogen-activated protein kinase kinase 1 (Homo sapiens, UniProt Q02750); assay: Navigating the Kinome. Panel member name: MAP2K1
[17] = molecular target: Tyrosine-protein kinase receptor TYRO3 (Homo sapiens, UniProt Q06418);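 note: TYRO3 value obtained as one member of a kinome-wide profiling panel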
[18] = molecular target: Tyrosine-protein kinase Lck (Homo sapiens, UniProt P06239);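 note: lck was assayed as one member of a kinase panel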
[19] = molecular target: Tyrosine-protein kinase BTK (Homo sapiens, UniProt Q06187)
[20] = molecular target: Casein kinase I isoform alpha (Homo sapiens, UniProt P48729)
[21] = molecular target: Serine/threonine-protein kinase N2 (Homo sapiens, UniProt Q16513)
Chain of Serine/threonine-protein kinase N2 (Q16513 whole entry): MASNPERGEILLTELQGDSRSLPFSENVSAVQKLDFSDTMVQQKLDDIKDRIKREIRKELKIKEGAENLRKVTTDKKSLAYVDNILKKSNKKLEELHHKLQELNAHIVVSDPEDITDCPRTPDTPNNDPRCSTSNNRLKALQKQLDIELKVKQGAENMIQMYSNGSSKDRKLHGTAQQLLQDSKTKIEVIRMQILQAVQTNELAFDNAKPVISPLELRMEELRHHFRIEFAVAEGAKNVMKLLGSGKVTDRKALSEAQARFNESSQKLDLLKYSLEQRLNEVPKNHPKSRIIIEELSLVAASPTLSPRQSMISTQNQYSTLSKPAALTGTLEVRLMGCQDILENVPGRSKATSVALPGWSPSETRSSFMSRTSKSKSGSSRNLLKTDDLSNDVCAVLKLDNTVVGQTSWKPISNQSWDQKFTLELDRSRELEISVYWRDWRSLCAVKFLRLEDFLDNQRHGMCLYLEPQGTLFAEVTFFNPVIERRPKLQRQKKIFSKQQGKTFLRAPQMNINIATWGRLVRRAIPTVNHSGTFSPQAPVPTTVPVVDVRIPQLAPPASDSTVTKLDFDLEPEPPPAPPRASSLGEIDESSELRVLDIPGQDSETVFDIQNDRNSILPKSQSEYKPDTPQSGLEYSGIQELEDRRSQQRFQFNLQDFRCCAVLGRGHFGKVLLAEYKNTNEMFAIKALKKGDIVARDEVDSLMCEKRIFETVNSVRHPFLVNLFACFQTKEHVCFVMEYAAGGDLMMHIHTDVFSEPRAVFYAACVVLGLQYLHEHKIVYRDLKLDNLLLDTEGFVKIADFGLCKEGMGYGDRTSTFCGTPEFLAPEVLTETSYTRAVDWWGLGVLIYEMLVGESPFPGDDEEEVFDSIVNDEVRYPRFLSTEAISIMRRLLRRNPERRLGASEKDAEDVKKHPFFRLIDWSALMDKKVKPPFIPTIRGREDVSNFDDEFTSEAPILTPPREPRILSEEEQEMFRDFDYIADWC

[22] = molecular target: Mitogen-activated protein kinase kinase kinase kinase 2 (Homo sapiens, UniProt Q12851);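 note: measured as one member of a kinome-wide kinase panel, with MAP4K2 as the panel entry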
[23] = molecular target: cAMP-dependent protein kinase catalytic subunit PRKX (Homo sapiens, UniProt P51817)
Chain of cAMP-dependent protein kinase catalytic subunit PRKX (P51817 whole entry): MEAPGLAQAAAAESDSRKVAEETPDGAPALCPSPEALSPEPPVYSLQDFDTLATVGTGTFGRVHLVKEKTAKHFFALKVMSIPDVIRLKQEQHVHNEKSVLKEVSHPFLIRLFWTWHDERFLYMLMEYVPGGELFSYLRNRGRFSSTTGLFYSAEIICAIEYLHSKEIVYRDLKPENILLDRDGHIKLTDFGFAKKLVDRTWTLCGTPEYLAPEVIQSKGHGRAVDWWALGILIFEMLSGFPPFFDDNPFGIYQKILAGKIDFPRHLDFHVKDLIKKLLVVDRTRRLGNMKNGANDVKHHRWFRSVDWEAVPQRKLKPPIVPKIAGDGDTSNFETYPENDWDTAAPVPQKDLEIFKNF

[24] = molecular target: Maternal embryonic leucine zipper kinase (Homo sapiens, UniProt Q14680)
Chain of Maternal embryonic leucine zipper kinase (Q14680 whole entry): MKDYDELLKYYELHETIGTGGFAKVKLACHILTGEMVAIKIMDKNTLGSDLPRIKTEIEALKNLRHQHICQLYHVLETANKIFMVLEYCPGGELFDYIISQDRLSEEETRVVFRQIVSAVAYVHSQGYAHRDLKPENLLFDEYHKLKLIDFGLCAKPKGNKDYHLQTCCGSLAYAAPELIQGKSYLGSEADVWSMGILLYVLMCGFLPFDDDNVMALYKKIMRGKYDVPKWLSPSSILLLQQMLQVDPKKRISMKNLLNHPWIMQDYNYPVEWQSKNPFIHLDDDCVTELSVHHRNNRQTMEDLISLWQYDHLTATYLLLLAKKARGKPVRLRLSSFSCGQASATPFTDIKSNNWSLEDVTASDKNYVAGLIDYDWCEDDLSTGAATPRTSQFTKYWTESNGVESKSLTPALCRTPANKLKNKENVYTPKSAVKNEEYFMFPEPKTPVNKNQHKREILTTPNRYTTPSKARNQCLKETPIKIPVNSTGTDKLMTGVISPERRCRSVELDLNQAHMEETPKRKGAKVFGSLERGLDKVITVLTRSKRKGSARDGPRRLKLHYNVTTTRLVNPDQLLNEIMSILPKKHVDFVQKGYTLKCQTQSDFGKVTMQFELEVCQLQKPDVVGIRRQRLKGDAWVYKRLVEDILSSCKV

[25] = molecular target: Platelet-derived growth factor receptor alpha (Homo sapiens, UniProt P16234); assay: Navigating the Kinome. Panel member name: PDGFRA
[26] = molecular target: Cyclin-dependent kinase 8 (Homo sapiens, UniProt P49336); assay: Navigating the Kinome. Panel member name: CDK8
Chain of Cyclin-dependent kinase 8 (P49336 whole entry): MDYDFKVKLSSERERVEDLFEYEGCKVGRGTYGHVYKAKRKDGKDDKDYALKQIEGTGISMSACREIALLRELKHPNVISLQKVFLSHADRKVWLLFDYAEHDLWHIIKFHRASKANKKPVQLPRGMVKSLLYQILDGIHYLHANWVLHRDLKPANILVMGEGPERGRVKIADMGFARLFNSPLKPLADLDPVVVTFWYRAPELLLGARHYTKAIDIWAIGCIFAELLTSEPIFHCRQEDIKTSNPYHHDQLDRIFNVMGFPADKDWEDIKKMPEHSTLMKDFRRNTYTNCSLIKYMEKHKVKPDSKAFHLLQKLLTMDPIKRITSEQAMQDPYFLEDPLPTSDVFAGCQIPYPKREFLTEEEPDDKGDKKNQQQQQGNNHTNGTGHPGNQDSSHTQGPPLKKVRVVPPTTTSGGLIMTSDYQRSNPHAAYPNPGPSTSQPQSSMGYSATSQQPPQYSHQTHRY

[27] = molecular target: Cyclin-dependent kinase 9 (Homo sapiens, UniProt P50750);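 note: value from the CDK9 entry of a kinome-spanning kinase panel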
Chain of Cyclin-dependent kinase 9 (P50750 whole entry): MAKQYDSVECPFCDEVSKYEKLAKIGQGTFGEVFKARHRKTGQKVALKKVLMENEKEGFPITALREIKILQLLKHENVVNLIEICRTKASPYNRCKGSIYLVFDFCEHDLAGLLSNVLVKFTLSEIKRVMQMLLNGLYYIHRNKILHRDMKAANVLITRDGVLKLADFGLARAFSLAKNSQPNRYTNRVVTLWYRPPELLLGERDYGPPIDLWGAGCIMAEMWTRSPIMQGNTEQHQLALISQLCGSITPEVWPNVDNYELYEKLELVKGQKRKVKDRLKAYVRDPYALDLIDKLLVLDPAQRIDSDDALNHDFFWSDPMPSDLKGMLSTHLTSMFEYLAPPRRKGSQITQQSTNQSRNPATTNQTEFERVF

[28] = molecular target: Macrophage-stimulating protein receptor (Homo sapiens, UniProt Q04912); assay: Navigating the Kinome. Panel member name: MST1R
[29] = molecular target: Calcium/calmodulin-dependent protein kinase type II subunit alpha (Homo sapiens, UniProt Q9UQM7); assay: Navigating the Kinome. Panel member name: CAMK2A

Chain of Ribosomal protein S6 kinase beta-1 (P23443 whole entry): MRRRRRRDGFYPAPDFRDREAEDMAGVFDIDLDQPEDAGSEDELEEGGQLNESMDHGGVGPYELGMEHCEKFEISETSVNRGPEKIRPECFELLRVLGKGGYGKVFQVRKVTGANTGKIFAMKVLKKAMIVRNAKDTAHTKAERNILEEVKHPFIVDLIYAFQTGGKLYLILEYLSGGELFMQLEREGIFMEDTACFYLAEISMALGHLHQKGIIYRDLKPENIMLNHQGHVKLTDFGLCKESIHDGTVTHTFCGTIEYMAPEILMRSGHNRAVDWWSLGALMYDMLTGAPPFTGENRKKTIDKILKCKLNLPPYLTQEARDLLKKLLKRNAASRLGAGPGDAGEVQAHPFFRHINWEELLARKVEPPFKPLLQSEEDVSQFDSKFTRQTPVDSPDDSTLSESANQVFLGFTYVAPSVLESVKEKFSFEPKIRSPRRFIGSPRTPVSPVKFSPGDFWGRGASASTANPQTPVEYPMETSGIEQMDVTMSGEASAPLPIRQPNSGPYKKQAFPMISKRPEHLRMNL
Chain of Protein kinase C delta type (Q05655 whole entry): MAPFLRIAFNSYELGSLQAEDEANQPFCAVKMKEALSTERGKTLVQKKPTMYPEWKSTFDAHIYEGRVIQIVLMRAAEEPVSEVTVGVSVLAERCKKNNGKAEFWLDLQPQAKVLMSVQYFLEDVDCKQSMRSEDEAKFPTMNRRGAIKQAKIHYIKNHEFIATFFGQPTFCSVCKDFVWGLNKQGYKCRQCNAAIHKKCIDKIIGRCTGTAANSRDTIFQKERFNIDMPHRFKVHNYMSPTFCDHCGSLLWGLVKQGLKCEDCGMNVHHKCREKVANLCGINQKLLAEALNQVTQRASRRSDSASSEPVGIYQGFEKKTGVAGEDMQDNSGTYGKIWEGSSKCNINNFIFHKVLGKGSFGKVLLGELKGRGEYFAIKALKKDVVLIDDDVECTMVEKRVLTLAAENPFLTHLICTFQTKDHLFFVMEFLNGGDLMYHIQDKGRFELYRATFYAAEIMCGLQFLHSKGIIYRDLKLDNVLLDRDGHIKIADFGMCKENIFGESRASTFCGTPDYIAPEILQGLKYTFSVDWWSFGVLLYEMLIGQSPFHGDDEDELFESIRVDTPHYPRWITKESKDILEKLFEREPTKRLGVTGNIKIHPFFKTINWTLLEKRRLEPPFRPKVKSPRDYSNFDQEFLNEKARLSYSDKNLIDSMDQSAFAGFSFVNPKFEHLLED

Compound: NC(COc1cncc(-c2cc3ccncc3s2)c1)Cc1c[nH]c2ccccc12 (stereo not given)
- Ki [1]: 50.1 nM (active)
- Ki [2]: 6.31 nM (active)
- Ki [3]: 398 nM (active)
- Ki [4]: 398 nM (active)
- Ki [5]: 794 nM (active)
- Ki [6]: > 1580 nM (inactive)
- Ki (Insulin receptor): > 5010 nM (inactive)
- Ki [7]: 794 nM (active)
- Ki [8]: 1580 nM (active)
- Ki [9]: 12.6 nM (active)
- Ki [10]: 100 nM (active)
- Ki [11]: 251 nM (active)
- Ki [12]: > 10000 nM (inactive)
- Ki [13]: > 7940 nM (inactive)
- Ki [14]: 200 nM (active)

Compound: CN(C)C1CCC(Nc2nc(Cl)cc(-c3c[nH]c4ncccc34)n2)CC1 (stereo not given)
- Ki [15]: 39.8 nM (active)
- Ki [16]: 200 nM (active)
- Ki [17]: > 3160 nM (inactive)
- Ki [18]: 5010 nM (active)
- Ki [19]: > 6310 nM (inactive)
- Ki [20]: 251 nM (active)
- Ki [21]: 10 nM (active)
- Ki [22]: 316 nM (active)
- Ki [23]: 25.1 nM (active)
- Ki [24]: 3.16 nM (active)
- Ki [25]: > 2510 nM (inactive)
- Ki [26]: 15.8 nM (active)
- Ki [27]: 5.01 nM (active)
- Ki [28]: 79.4 nM (active)
- Ki [29]: 398 nM (active)
